Data taken from publication PMC12621043, “Un-LOK-ing a New Approach for Conformational Selective Targeting of STK10 (LOK)” (ACS Medicinal Chemistry Letters, 2025).

Legend:
GPRK5A = biological target: T1, GPRK5A (Homo sapiens, UniProt P34947); test: DSF Tm panel; assay type: binding; conditions: 10 μM compound
T1 construct: purchased in-house DSF kinase panel (SGC-style construct names; the trailing letter is the construct ID)

SRPK1A = biological target: T2, SRPK1A (Homo sapiens, UniProt Q96SB4); test: DSF Tm panel; assay type: binding; conditions: 10 μM compound
T2 construct: purchased in-house DSF kinase panel (SGC-style construct names; the trailing letter is the construct ID)

DYRK1AA = biological target: T3, DYRK1AA (Homo sapiens, UniProt Q13627); test: DSF Tm panel; assay type: binding; conditions: 10 μM compound
T3 construct: purchased in-house DSF kinase panel (SGC-style construct names; the trailing letter is the construct ID)

STK10 = biological target: T4, STK10 (Homo sapiens, UniProt O94804); test: PhosphoSens in vitro activity assay; assay type: biochemical; conditions: ATP 160 μM
T4 construct: purchased in-house DSF kinase panel (SGC-style construct names; the trailing letter is the construct ID)

RPS6KA1A = test: DSF Tm panel; assay type: binding; conditions: 10 μM compound
SLK [1] = biological target: T5, SLK (Homo sapiens, UniProt Q9H2G2); test: PhosphoSens in vitro activity assay; assay type: biochemical; conditions: ATP 150 μM
DAPK3 (DAPK3A) = biological target: T6, DAPK3 (DAPK3A) (Homo sapiens, UniProt O43293); test: DSF Tm panel; assay type: binding; conditions: 10 μM compound
T6 construct: purchased in-house DSF kinase panel (SGC-style construct names; the trailing letter is the construct ID)

OSR1A = biological target: T7, OSR1A (Homo sapiens, UniProt O95747); test: DSF Tm panel; assay type: binding; conditions: 10 μM compound
T7 construct: purchased in-house DSF kinase panel (SGC-style construct names; the trailing letter is the construct ID)

PKMYT1A = biological target: T8, PKMYT1A (Homo sapiens, UniProt Q99640); test: DSF Tm panel; assay type: binding; conditions: 10 μM compound
T8 construct: purchased in-house DSF kinase panel (SGC-style construct names; the trailing letter is the construct ID)
T8 sequence (Q99640 75-362): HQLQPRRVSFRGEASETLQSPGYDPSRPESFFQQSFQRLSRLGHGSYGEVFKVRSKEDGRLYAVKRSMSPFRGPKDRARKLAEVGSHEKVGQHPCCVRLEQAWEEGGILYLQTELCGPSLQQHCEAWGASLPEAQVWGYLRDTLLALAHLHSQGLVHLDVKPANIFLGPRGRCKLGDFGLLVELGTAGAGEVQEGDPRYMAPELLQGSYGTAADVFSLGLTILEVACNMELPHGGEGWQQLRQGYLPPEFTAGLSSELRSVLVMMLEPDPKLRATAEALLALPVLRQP

MST3A = biological target: T9, MST3A (Homo sapiens, UniProt Q9Y6E0); test: DSF Tm panel; assay type: binding; conditions: 10 μM compound
T9 construct: purchased in-house DSF kinase panel (SGC-style construct names; the trailing letter is the construct ID)

CASKA = biological target: T10, CASKA (Homo sapiens, UniProt O14936); test: DSF Tm panel; assay type: binding; conditions: 10 μM compound
T10 construct: purchased in-house DSF kinase panel (SGC-style construct names; the trailing letter is the construct ID)
T10 sequence (O14936 12-276): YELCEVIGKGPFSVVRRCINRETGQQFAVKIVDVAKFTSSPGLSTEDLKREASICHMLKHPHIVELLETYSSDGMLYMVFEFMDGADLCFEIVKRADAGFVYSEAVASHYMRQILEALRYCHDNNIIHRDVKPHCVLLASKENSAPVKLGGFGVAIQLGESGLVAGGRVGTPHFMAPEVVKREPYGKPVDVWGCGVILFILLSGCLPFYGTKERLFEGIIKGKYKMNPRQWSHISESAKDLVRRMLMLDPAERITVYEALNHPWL

MST4A = biological target: T11, MST4A (Homo sapiens, UniProt Q9P289); test: DSF Tm panel; assay type: binding; conditions: 10 μM compound
T11 construct: purchased in-house DSF kinase panel (SGC-style construct names; the trailing letter is the construct ID)

MAPK1A = biological target: T12, MAPK1A (Homo sapiens, UniProt P28482); test: DSF Tm panel; assay type: binding; conditions: 10 μM compound
T12 construct: purchased in-house DSF kinase panel (SGC-style construct names; the trailing letter is the construct ID)

FGFR2A = biological target: T13, FGFR2A (Homo sapiens, UniProt P21802); test: DSF Tm panel; assay type: binding; conditions: 10 μM compound
T13 construct: purchased in-house DSF kinase panel (SGC-style construct names; the trailing letter is the construct ID)

CDK2A = biological target: T14, CDK2A (Homo sapiens, UniProt P24941); test: DSF Tm panel; assay type: binding; conditions: 10 μM compound
T14 construct: purchased in-house DSF kinase panel (SGC-style construct names; the trailing letter is the construct ID)

PCTK1A = biological target: T15, PCTK1A (Homo sapiens, UniProt Q00536); test: DSF Tm panel; assay type: binding; conditions: 10 μM compound
T15 construct: purchased in-house DSF kinase panel (SGC-style construct names; the trailing letter is the construct ID)

NEK1A = biological target: T16, NEK1A (Homo sapiens, UniProt Q96PY6); test: DSF Tm panel; assay type: binding; conditions: 10 μM compound
T16 construct: purchased in-house DSF kinase panel (SGC-style construct names; the trailing letter is the construct ID)
T16 sequence (Q96PY6 1-328): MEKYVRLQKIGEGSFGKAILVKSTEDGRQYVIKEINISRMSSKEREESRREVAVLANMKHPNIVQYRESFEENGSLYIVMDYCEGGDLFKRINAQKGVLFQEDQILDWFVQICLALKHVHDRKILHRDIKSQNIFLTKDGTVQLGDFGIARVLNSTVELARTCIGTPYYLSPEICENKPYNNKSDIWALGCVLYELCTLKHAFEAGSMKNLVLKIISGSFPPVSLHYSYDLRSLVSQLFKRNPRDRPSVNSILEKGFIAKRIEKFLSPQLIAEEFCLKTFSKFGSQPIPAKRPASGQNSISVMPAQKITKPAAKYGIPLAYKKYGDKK

DAPK1 (DAPK1A) = biological target: T17, DAPK1 (DAPK1A) (Homo sapiens, UniProt P53355); test: DSF Tm panel; assay type: binding; conditions: 10 μM compound
T17 construct: purchased in-house DSF kinase panel (SGC-style construct names; the trailing letter is the construct ID)

CDKL1A = biological target: T18, CDKL1A (Homo sapiens, UniProt Q00532); test: DSF Tm panel; assay type: binding; conditions: 10 μM compound
T18 construct: purchased in-house DSF kinase panel (SGC-style construct names; the trailing letter is the construct ID)

SLK [2] = biological target: T5, SLK; test: NanoBRET target engagement assay; assay type: cell-based; design: has a greater impact on the full-length protein than on the kinase domains; host or cells: HEK293T (ATCC CRL-3216); conditions: HEK293T cells
BRAFA = biological target: T19, BRAFA (Homo sapiens, UniProt P15056); test: DSF Tm panel; assay type: binding; conditions: 10 μM compound
T19 construct: purchased in-house DSF kinase panel (SGC-style construct names; the trailing letter is the construct ID)

STK4 (STK4A) = biological target: T20, STK4 (STK4A) (Homo sapiens, UniProt Q13043); test: DSF Tm panel; assay type: binding; conditions: 10 μM compound
T20 construct: purchased in-house DSF kinase panel (SGC-style construct names; the trailing letter is the construct ID)
T20 sequence (Q13043 1-311): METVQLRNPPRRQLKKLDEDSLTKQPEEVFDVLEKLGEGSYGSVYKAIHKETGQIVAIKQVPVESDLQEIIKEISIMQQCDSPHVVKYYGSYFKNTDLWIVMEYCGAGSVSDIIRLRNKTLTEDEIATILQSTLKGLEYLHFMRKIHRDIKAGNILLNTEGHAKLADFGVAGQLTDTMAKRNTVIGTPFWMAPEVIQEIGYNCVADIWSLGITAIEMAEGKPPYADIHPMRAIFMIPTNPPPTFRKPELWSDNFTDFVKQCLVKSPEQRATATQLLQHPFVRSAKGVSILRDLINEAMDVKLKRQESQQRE

CAMKK2B = biological target: T21, CAMKK2B (Homo sapiens, UniProt Q96RR4); test: DSF Tm panel; assay type: binding; conditions: 10 μM compound
T21 construct: purchased in-house DSF kinase panel (SGC-style construct names; the trailing letter is the construct ID)

CLK1A = biological target: T22, CLK1A (Homo sapiens, UniProt P49759); test: DSF Tm panel; assay type: binding; conditions: 10 μM compound
T22 construct: purchased in-house DSF kinase panel (SGC-style construct names; the trailing letter is the construct ID)
T22 sequence (P49759 148-484): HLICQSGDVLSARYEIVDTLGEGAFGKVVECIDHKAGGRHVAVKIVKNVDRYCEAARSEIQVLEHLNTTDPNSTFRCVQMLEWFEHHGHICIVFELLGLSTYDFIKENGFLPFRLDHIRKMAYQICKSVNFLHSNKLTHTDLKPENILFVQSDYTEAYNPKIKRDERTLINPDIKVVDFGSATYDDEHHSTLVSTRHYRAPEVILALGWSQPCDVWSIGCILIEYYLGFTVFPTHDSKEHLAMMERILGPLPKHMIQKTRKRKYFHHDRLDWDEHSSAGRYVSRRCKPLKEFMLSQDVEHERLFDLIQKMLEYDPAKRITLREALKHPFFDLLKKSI

T13 sequence (P21802 458-770): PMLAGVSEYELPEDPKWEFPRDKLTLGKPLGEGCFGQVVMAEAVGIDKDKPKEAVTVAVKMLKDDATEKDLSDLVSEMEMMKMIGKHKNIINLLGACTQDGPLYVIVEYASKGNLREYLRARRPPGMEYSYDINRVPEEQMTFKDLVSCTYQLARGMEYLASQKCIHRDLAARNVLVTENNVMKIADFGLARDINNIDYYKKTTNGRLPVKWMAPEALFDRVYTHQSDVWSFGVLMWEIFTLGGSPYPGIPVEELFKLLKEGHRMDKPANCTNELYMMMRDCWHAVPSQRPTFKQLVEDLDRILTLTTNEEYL
T9 sequence (Q9Y6E0 whole entry): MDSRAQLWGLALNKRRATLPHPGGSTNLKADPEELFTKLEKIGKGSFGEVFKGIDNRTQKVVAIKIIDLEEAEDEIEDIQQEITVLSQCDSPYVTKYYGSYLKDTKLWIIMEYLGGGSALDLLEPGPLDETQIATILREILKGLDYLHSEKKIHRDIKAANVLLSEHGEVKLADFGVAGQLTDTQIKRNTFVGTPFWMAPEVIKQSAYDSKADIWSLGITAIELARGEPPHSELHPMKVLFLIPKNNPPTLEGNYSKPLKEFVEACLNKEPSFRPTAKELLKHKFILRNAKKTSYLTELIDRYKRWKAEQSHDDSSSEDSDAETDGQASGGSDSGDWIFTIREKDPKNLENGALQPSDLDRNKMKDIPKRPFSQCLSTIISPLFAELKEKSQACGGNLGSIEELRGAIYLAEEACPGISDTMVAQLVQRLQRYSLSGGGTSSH
T2 sequence (Q96SB4 80-653): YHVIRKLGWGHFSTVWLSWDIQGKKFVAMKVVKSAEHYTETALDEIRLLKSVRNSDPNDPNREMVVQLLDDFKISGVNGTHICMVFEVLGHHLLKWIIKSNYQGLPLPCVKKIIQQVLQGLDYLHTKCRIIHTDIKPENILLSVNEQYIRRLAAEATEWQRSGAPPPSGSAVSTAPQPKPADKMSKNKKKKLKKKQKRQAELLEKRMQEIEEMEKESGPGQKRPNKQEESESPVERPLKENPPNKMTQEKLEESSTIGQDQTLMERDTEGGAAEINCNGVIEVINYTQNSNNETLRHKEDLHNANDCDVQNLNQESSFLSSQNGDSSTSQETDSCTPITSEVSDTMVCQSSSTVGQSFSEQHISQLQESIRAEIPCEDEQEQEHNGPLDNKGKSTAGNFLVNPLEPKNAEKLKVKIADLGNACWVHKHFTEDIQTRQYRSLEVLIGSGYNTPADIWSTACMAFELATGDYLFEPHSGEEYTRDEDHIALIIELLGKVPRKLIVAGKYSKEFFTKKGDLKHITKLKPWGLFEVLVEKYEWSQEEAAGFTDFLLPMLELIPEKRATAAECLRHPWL
T7 sequence (O95747 17-291): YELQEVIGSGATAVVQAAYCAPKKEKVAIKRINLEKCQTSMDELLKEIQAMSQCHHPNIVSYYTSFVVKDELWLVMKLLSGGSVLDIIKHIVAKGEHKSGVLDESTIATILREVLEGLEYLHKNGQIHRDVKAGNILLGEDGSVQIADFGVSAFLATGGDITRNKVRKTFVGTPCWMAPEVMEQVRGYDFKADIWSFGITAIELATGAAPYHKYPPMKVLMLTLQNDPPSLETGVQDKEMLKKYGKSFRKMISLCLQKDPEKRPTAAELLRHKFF
T6 sequence (O43293 whole entry): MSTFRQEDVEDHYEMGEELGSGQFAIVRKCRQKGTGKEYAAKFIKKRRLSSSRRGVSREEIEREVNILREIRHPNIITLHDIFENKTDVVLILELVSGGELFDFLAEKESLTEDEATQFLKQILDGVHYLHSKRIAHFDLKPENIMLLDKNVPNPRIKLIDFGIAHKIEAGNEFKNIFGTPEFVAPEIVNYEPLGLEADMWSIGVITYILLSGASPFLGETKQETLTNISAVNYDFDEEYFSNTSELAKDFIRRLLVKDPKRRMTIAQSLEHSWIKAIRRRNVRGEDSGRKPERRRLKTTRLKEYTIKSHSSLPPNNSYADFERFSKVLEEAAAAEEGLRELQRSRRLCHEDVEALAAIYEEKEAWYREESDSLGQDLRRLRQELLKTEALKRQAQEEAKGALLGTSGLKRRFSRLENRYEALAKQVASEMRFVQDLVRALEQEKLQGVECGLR
T19 sequence (P15056 448-723): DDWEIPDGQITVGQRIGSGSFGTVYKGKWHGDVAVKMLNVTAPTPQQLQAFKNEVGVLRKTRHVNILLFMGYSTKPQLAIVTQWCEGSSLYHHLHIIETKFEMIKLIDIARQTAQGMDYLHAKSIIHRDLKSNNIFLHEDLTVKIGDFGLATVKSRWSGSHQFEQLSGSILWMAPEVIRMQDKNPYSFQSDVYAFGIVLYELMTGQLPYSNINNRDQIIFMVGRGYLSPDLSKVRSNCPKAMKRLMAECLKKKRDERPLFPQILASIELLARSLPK
T11 sequence (Q9P289 1-300): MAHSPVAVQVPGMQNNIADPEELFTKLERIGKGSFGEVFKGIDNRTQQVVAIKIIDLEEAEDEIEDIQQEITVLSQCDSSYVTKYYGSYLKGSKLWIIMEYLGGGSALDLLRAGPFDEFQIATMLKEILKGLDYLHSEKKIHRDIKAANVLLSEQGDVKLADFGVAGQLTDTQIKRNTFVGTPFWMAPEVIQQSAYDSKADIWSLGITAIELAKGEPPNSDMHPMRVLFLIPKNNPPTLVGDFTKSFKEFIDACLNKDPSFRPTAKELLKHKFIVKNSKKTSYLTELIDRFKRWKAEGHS
T4 sequence (O94804 18-317 limits assumed): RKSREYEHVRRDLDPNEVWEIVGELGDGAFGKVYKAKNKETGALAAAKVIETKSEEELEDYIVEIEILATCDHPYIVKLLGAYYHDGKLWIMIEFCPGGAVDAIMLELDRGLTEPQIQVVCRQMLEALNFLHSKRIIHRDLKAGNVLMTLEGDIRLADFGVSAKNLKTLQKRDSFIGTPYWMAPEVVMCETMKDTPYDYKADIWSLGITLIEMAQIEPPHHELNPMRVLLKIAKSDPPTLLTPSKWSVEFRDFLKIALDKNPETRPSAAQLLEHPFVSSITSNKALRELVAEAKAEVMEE
T12 sequence (P28482 whole entry): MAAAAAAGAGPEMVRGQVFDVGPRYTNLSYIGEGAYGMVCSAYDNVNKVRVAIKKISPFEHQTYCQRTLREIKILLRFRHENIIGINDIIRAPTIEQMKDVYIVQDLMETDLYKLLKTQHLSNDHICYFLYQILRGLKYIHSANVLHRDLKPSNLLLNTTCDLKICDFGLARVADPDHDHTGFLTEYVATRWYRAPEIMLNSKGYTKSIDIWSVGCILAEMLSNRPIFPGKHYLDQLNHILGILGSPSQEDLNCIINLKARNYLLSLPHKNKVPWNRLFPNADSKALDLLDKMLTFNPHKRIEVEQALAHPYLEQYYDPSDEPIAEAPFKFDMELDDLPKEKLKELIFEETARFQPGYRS
T18 sequence (Q00532 1-303): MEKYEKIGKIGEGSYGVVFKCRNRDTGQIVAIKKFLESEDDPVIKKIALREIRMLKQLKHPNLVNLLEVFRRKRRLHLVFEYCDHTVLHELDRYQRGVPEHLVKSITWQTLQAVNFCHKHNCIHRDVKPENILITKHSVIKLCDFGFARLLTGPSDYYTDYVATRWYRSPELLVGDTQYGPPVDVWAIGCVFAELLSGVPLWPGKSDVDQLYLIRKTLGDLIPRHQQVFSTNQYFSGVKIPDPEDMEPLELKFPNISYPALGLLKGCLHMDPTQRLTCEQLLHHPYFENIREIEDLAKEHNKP
T1 sequence (P34947 186-514): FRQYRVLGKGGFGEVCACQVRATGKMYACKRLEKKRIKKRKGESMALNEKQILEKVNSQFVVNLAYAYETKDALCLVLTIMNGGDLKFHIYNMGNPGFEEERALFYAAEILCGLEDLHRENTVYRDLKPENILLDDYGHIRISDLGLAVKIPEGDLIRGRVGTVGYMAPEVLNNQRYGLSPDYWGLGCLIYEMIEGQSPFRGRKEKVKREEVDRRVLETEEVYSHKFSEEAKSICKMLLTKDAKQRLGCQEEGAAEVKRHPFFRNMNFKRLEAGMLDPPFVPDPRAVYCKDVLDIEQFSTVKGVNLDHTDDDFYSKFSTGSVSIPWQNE
T21 sequence (Q96RR4 161-449): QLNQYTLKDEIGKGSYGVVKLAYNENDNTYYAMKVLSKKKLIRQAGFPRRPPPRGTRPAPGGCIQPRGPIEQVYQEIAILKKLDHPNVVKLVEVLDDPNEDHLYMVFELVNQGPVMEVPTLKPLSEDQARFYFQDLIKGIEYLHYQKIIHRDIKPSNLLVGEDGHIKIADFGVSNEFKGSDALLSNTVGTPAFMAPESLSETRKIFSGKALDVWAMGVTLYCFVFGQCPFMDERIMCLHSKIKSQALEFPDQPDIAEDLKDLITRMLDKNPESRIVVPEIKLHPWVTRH
T17 sequence (P53355 1-285): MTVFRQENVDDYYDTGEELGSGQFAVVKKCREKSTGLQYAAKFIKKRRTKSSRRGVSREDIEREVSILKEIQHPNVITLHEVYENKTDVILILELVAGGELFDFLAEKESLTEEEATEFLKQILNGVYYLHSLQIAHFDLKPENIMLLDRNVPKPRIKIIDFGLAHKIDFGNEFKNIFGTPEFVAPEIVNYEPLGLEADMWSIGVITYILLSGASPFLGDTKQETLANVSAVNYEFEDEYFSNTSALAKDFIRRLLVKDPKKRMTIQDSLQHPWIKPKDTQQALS

| Compound | ΔTm at 10 µM (GPRK5A) [°C] | ΔTm at 10 µM (SRPK1A) [°C] | ΔTm at 10 µM (DYRK1AA) [°C] | ΔTm at 10 µM (DAPK3 (DAPK3A)) [°C] | ΔTm at 10 µM (OSR1A) [°C] | ΔTm at 10 µM (PKMYT1A) [°C] | ΔTm at 10 µM (MST3A) [°C] | ΔTm at 10 µM (CASKA) [°C] | ΔTm at 10 µM (MST4A) [°C] | ΔTm at 10 µM (MAPK1A) [°C] | ΔTm at 10 µM (FGFR2A) [°C] | ΔTm at 10 µM (CDK2A) [°C] | ΔTm at 10 µM (PCTK1A) [°C] | ΔTm at 10 µM (NEK1A) [°C] | ΔTm at 10 µM (DAPK1 (DAPK1A)) [°C] | ΔTm at 10 µM (CDKL1A) [°C] | ΔTm at 10 µM (BRAFA) [°C] | ΔTm at 10 µM (STK4 (STK4A)) [°C] | ΔTm at 10 µM (CAMKK2B) [°C] | ΔTm at 10 µM (CLK1A) [°C] | also measured |
| --- | --- | --- | --- | --- | --- | --- | --- | --- | --- | --- | --- | --- | --- | --- | --- | --- | --- | --- | --- | --- | --- |
| O=C(NCc1ccccc1)Nc1ccc2cc1OCCOCCNc1ccn3ncc-2c3n1 [compound 16] | 1.2 | 0 | 3.8 | 3.4 | 0.5 | 0.6 | 1.5 | 2.2 | 1.3 | -0.1 | 4.8 | 4.1 | 1.8 | 0.1 | 1.3 | -0.1 | 0.8 | 4.9 | 3.8 | 3.4 | IC50 (STK10): 0.88 ± 0.11 µM; ΔTm RPS6KA1A (RPS6KA1A): 1,4 °C; IC50 (SLK [1]): 9.36 ± 1.77 µM; EC50 (SLK [2]): > 50 µM |
| O=C(NCc1ccccc1Cl)Nc1ccc2cc1OCCOCCNc1ccn3ncc-2c3n1 [compound 17] | 1.3 | 0 | -1.3 | 0.7 | 0.7 | 1 | 0.7 | 2.8 | 0.7 | 0.3 | 1.7 | 2.9 | 2.5 | 0.2 | 0.1 | 0.4 | 0.8 | 4.1 | 3.3 | 4.5 | IC50 (STK10): 1.53 ± 0.26 µM; ΔTm RPS6KA1A (RPS6KA1A): 1,2 °C; IC50 (SLK [1]): 6.83 ± 1.58 µM; EC50 (SLK [2]): > 50 µM |
| O=C(NCc1cccc(Cl)c1)Nc1ccc2cc1OCCOCCNc1ccn3ncc-2c3n1 [compound 18] | 1.1 | -0.3 | 1.1 | 1.3 | 1.7 | 1.5 | 0.7 | 2.1 | 0.8 | 0.7 | 3.3 | 4.3 | 1.3 | 0.2 | 0.3 | -0.1 | 0.6 | 4.5 | 3.1 | 2.9 | IC50 (STK10): 2.57 ± 0.11 µM; ΔTm RPS6KA1A (RPS6KA1A): 0,7 °C; IC50 (SLK [1]): 5.93 ± 0.76 µM; EC50 (SLK [2]): > 50 µM |
| O=C(NCc1ccc(C(F)(F)F)cc1)Nc1ccc2cc1OCCOCCNc1ccn3ncc-2c3n1 [compound 28] | 0.7 | 0 | 1.6 | 1.2 | 2.2 | 1.1 | -4.5 | 0.5 | 2.1 | 0.9 | 2.3 | 3.3 | 1 | 0 | 0.4 | 0.6 | 0 | 4.3 | 1.8 | 2.3 | IC50 (STK10): 5 ± 0.61 µM; ΔTm RPS6KA1A (RPS6KA1A): 0,2 °C; EC50 (SLK [2]): > 50 µM |
| COc1ccc(CNC(=O)Nc2ccc3cc2OCCOCCNc2ccn4ncc-3c4n2)cc1 [compound 31] | 0.9 | 0.1 | 0.3 | 1.2 | 1.3 | 0.3 | -5.3 | 1.8 | 0.9 | 0.9 | 3.1 | 3.3 | 1.9 | -0.4 | 0.3 | 0.6 | -0.5 | 4.1 | 1.8 | 2.8 | IC50 (STK10): 2.74 ± 0.47 µM |
| CN1CCN(C(=O)Nc2ccc3cc2OCCOCCNc2ccn4ncc-3c4n2)CC1 [compound 35] | 0.8 | 0.2 | -1.5 | 2.8 | 0 | 0.8 | 0.4 | 0 | -0.4 | 0.3 | 1.5 | 1.4 | 1 | 0.4 | 0.7 | -0.2 | 1.2 | 0.9 | 2.9 | 2.9 | ΔTm RPS6KA1A (RPS6KA1A): 0,7 °C; EC50 (SLK [2]): > 50 µM |
